The text below walks through data of ChEMBL document CHEMBL1921720, “A new antifungal briarane diterpenoid from the gorgonian Junceella juncea Pallas” (2011).

Common to all, as to format: functional
For one assay, the system named is Proteus vulgaris. The assay can be described thus: Antibacterial activity against Proteus vulgaris at 200 ug/mL after 24 hrs by agar cup diffusion method. The note with it: for zone of inhibition at 200 µg/mL: read-out: DIZ.
For another assay, the system named is Bacillus subtilis. Kind of assay: Antibacterial activity against Bacillus subtilis at 200 ug/mL after 24 hrs by agar cup diffusion method. The note with it: for zone of inhibition at 200 µg/mL: read-out: DIZ.
Another assay concerns Bacillus pumilus. The assay can be described thus: Antibacterial activity against Bacillus pumilus at 200 ug/mL after 24 hrs by agar cup diffusion method. The note with it: for zone of inhibition at 200 µg/mL: read-out: DIZ.
The test system of the next assay is Aspergillus niger. The assay can be described thus: Antifungal activity against Aspergillus niger at 200 ug/mL after 48 hrs by agar cup diffusion assay. The note with it: for zone of inhibition at 200 µg/mL: read-out: DIZ.
The next assay concerns Escherichia coli. The assay can be described thus: Antibacterial activity against Escherichia coli at 200 ug/mL after 24 hrs by agar cup diffusion method. The note with it: for zone of inhibition at 200 µg/mL: read-out: DIZ.
Another assay has as its system Penicillium chrysogenum. Kind of assay: Antifungal activity against Penicillium chrysogenum at 200 ug/mL after 48 hrs by agar cup diffusion assay.
A further assay concerns Candida albicans. Kind of assay: Antifungal activity against Candida albicans at 200 ug/mL after 48 hrs by agar cup diffusion assay. Particulars: for zone of inhibition at 200 µg/mL: read-out: DIZ.

Structures are written as SMILES. The source made the active and inactive calls. The rule behind the calls is not given here.

Regarding `CC1(C)S[C@@H]2[C@H](NC(=O)[C@H](N)c3ccccc3)C(=O)N2[C@H]1C(=O)O` [AMPICILLIN], the zone of inhibition at 200 µg/mL with Proteus vulgaris was 16 mm; in the assay on Bacillus subtilis it was 17 mm; in the assay on Bacillus pumilus it was 18 mm; in the assay on Escherichia coli, 17 mm. Also, the “diameter of the inhibition zone (DIZ)” value with Aspergillus niger, in the assay on Penicillium chrysogenum and in the assay on Candida albicans was “inactive” each time.

As for `C=C1CC[C@H](OC(C)=O)[C@@]2(C)[C@@H](OC(=O)CC(C)C)C[C@@H](OC(C)=O)[C@]3(CO3)[C@@H]2[C@H](OC(C)=O)[C@]2(O)[C@@H](C)C(=O)O[C@H]2[C@H]1Cl` [JUNCIN H], the zone of inhibition at 200 µg/mL was found to be 13 mm with Proteus vulgaris; 12 mm with Bacillus subtilis; 10 mm in the assay with Bacillus pumilus; 6 mm with Aspergillus niger; 14 mm in the assay on Escherichia coli. Further, the “diameter of the inhibition zone (DIZ)” value in the assay with Penicillium chrysogenum and with Candida albicans was “inactive” in each case.

`C=C1CC[C@H](OC(C)=O)[C@@]2(C)[C@@H](OC(C)=O)[C@@H](OC(C)=O)[C@@H](OC(C)=O)[C@]3(CO3)[C@@H]2[C@H](OC(C)=O)[C@]2(O)[C@@H](C)C(=O)O[C@H]2[C@H]1Cl` [GEMMACOLIDE A]: the zone of inhibition at 200 µg/mL in the assay with Proteus vulgaris amounted to 12 mm; with Bacillus subtilis, 10 mm; in the assay with Bacillus pumilus it was 19 mm; with Aspergillus niger, 10 mm; with Escherichia coli it was 20 mm; in the assay with Candida albicans, 8 mm. Moreover, the “diameter of the inhibition zone (DIZ)” value in the assay on Penicillium chrysogenum is “inactive”.

Consider `C=C1CC[C@H](OC(C)=O)[C@@]2(C)[C@@H](OC(=O)CC(C)C)C[C@@H](OC(C)=O)[C@]3(CO3)[C@@H]2[C@H](OC(C)=O)[C@@]2(O)[C@H](C1)OC(=O)[C@@H]2C`, for which the “diameter of the inhibition zone (DIZ)” value with Proteus vulgaris, with Bacillus subtilis, in the assay on Bacillus pumilus and in the assay with Escherichia coli was “inactive” in each case. Also, the zone of inhibition at 200 µg/mL in the assay with Aspergillus niger worked out at 18 mm; in the assay with Penicillium chrysogenum (read-out: DIZ), 16 mm; in the assay on Candida albicans it was 17 mm.

Regarding `C=C1CC[C@H](OC(C)=O)[C@@]2(C)[C@@H](OC(C)=O)[C@@H](OC(=O)CC(C)C)[C@@H](OC(C)=O)[C@]3(CO3)[C@@H]2[C@H](OC(C)=O)[C@]2(O)[C@@H](C)C(=O)O[C@H]2[C@H]1Cl` [GEMMACOLIDE B], the zone of inhibition at 200 µg/mL with Proteus vulgaris turned out to be 12 mm; in the assay on Bacillus subtilis, 10 mm; in the assay with Bacillus pumilus it was 19 mm; in the assay with Aspergillus niger it was 10 mm; in the assay on Escherichia coli, 20 mm; in the assay on Candida albicans it was 8 mm. In addition, the “diameter of the inhibition zone (DIZ)” value in the assay with Penicillium chrysogenum is “inactive”.

In the case of `CC(=O)OCC1=C/[C@@H]2OC(=O)[C@H](C)[C@@]2(O)[C@@H](OC(C)=O)[C@H]2[C@@]3(CO3)[C@H](OC(=O)CC(C)C)C[C@H](OC(=O)CC(C)C)[C@]2(C)[C@@H](OC(C)=O)/C=C\1` [JUNCIN K], the zone of inhibition at 200 µg/mL is 14 mm in the assay with Proteus vulgaris; 13 mm in the assay with Bacillus subtilis; 13 mm in the assay with Bacillus pumilus; 8 mm in the assay on Aspergillus niger; 15 mm in the assay on Escherichia coli. In addition, the “diameter of the inhibition zone (DIZ)” value in the assay on Penicillium chrysogenum and in the assay on Candida albicans was “inactive” each time.

As for `CC(=O)N1CCN(c2ccc(OCC3COC(Cn4ccnc4)(c4ccc(Cl)cc4Cl)O3)cc2)CC1` (centres undefined) [KETOCONAZOLE], the “diameter of the inhibition zone (DIZ)” value with Proteus vulgaris, with Bacillus subtilis, in the assay with Bacillus pumilus, in the assay with Escherichia coli and in the assay with Penicillium chrysogenum was “inactive” in each case. The zone of inhibition at 200 µg/mL in the assay on Aspergillus niger was 24 mm; in the assay on Candida albicans, 21 mm.
